The first assay has as its target T1, ETV1 (Homo sapiens, UniProt P50549).
T1 construct: expressed in transfected cells; host or cells: HEK293
T1 sequence (P50549 1-477): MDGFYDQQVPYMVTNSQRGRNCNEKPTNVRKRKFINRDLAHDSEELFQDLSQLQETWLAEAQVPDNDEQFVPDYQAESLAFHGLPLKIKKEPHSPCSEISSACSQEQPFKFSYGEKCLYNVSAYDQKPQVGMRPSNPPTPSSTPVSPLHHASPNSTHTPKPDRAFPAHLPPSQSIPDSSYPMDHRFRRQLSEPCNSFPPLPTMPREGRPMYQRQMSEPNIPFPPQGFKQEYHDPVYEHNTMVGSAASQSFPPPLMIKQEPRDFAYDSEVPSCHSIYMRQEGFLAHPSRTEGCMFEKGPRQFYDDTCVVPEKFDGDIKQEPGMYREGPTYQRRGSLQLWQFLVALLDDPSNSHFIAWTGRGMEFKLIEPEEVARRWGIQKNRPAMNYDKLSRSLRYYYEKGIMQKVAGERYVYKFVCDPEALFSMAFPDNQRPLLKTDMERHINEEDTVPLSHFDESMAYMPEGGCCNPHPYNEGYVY
As to the kind of experiment: ETV1-dependent reporter assay in HEK293 cells. The assay is classed as cell-based. Conditions: 48 hours. The protocol: HEK293 cells were transiently transfected with empty vector (for the NT) or ERG-expressing plasmid as well as pRL-TK (internal control) and PUx3-Luc reporter. Cells were then exposed to DMSO vehicle or compounds at designated doses for 48 hours. Experiments were done in triplicate.
Experiments were done as described above in FIG. 1.1a) except that ERG plasmid was replaced by ETV1 plasmid.
(Reporter assays use an easily measured gene product as a stand-in for the process of interest.)
As for `Fc1ccc2[nH]cc(Cc3nc(-c4ccccc4)c(-c4ccccc4)o3)c2c1` [Compound 636], the “ETV1 inhibition in ETV1-dependent reporter assay” value (“ETV1 inhibition” below) is given as “ETV1 inhibitors”.
For `Cc1[nH]c2ccccc2c1Cc1nc(-c2ccccc2)c(-c2ccccc2)o1` [Compound 637], the “ETV1 inhibition” value is “ETV1 inhibitors”.
For `Cn1cc(Cc2nc(-c3ccccc3)c(-c3ccccc3)o2)c2ccccc21` [Compound 638], the “ETV1 inhibition” value is given as “ETV1 inhibitors”.
`Fc1ccc(-c2nc(Cc3c[nH]c4ccccc34)oc2-c2ccc(F)cc2)cc1` [Compound 652]: the “ETV1 inhibition” value is given as “ETV1 inhibitors”.
Turning to `Cc1ccc(-c2nc(Cc3c[nH]c4ccccc34)oc2-c2ccc(C)cc2)cc1` [Compound 654], the “ETV1 inhibition” value is recorded as “ETV1 inhibitors”.

The target in another assay is T2, human STING (hSTING) (Homo sapiens, UniProt Q86WV6).
T2 construct: expressed in transfected cells; host or cells: 293T
T2 sequence (Q86WV6 whole entry H232R): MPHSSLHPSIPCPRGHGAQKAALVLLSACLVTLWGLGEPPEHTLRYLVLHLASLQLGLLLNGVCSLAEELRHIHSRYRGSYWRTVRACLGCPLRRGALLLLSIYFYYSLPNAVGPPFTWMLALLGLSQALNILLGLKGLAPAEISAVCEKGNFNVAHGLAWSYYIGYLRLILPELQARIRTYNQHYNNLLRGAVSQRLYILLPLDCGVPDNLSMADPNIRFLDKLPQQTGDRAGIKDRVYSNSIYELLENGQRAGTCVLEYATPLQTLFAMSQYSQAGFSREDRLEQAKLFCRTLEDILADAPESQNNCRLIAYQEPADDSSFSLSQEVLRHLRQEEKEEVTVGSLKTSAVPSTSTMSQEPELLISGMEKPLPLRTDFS
The assay is described as follows: hSTING ISRE-luc reporter assay in 293T cells. The assay is classed as cell-based. Conditions: 24 hours. The method, then: ISRE-luc (reporter), pRL-TK (internal control) and hSTING-expressing plasmids were transiently transfected into 293T cells. Cells were exposed to DMSO vehicle control or compounds for 24 hours. Experiments were done in triplicate.
Regarding `COc1ccc(-c2nc(Cc3c[nH]c4ccccc34)oc2-c2ccc(OC)cc2)cc1` [Compound 660], the “activation of hSTING in ISRE-luc reporter assay” value was “activate hSTING”.
The same measure, in the same setting: the value for `Fc1ccc(-c2nc(CCCc3c[nH]c4ccccc34)oc2-c2ccc(F)cc2)cc1` [Compound 671] was “activate hSTING”.
Regarding `FC(F)(F)c1ccccc1-c1nc(CCCc2c[nH]c3ccccc23)oc1-c1ccccc1C(F)(F)F` [Compound 677], the “activation of hSTING in ISRE-luc reporter assay” value is given as “activate human STING (hSTING)”.
Consider `FC(F)(F)c1cc(CCc2nc(-c3ccccc3)c(-c3ccccc3)o2)cc(C(F)(F)F)c1` [Compound 689], for which the “activation of hSTING in ISRE-luc reporter assay” value was “activate hSTING”.
On to `Clc1cccc(-c2nc(CCCc3c[nH]c4ccccc34)oc2-c2cccc(Cl)c2)c1` [Compound 762], for which the “activation of hSTING in ISRE-luc reporter assay” value is given as “activate human STING (hSTING)”.
For `c1coc(-c2nc(CCCc3c[nH]c4ccccc34)oc2-c2ccco2)c1` [Compound 831], the “activation of hSTING in ISRE-luc reporter assay” value was “activate hSTING”.
For the compound `COc1ccccc1-c1nc(CCCc2c[nH]c3ccccc23)oc1-c1ccccc1OC` [Compound 916], the “activation of hSTING in ISRE-luc reporter assay” value was “activate hSTING”.
For `COc1ccccc1-c1nc(CCc2c[nH]c3ccccc23)oc1-c1ccccc1OC` [Compound 917], the “activation of hSTING in ISRE-luc reporter assay” value is recorded as “activate hSTING”.
Consider `FC(F)(F)c1ccc(-c2nc(CCc3c[nH]c4ccccc34)oc2-c2ccc(C(F)(F)F)cc2)cc1` [Compound 918], for which the “activation of hSTING in ISRE-luc reporter assay” value is given as “activate hSTING”.
Same read-out and setting: the same measure for `c1coc(-c2nc(CCc3c[nH]c4ccccc34)oc2-c2ccco2)c1` [Compound 919]: “activate hSTING”; for `FC(F)(F)c1ccccc1-c1nc(CCc2c[nH]c3ccccc23)oc1-c1ccccc1C(F)(F)F` [Compound 920]: “activate hSTING”.

A further assay has as its system hSTING and/or mSTING. The assay is described as follows: hSTING- or mSTING-dependent ISRE-luc reporter assay in 293T cells. The assay is classed as cell-based. Particulars: 24 hours. The protocol: ISRE-luc (reporter), pRL-TK (internal control) and hSTING- or mSTING-expressing plasmids were transiently transfected into 293T cells. Cells were exposed to DMSO vehicle control or compounds for 24 hours. Experiments were done in triplicate.
For the compound `N#Cc1cccc(CN2CCN(Cc3nc(-c4ccccc4)c(-c4ccccc4)o3)CC2)c1` [Compound 1360], the “activation of hSTING and/or mSTING in ISRE-luc reporter assay” value (“activation of hSTING and/or mSTING” for short) is recorded as “activate hSTING and/or mSTING”.
Take `N#Cc1ccc(CN2CCN(Cc3nc(-c4ccccc4)c(-c4ccccc4)o3)CC2)cc1` [Compound 1361]: the “activation of hSTING and/or mSTING” value was “activate hSTING and/or mSTING”.
Consider `N#Cc1ccccc1CN1CCN(Cc2nc(-c3ccccc3)c(-c3ccccc3)o2)CC1` [Compound 1364], for which the “activation of hSTING and/or mSTING” value was “activate hSTING and/or mSTING”.
Same read-out and setting: the same measure for `Cc1cccnc1CN1CCN(Cc2nc(-c3ccccc3)c(-c3ccccc3)o2)CC1` [Compound 1366]: “activate hSTING and/or mSTING”; for `c1ccc(-c2nc(CNCCc3c[nH]c4ccccc34)[nH]c2-c2ccccc2)cc1` [Compound 1369]: “activate hSTING and/or mSTING”; for `COCCN1CCN(Cc2nc(-c3ccccc3)c(-c3ccccc3)o2)CC1` [Compound 1370]: “activate hSTING and/or mSTING”.
For `C=CCN(CCc1c[nH]c2ccccc12)Cc1nc(-c2ccccc2)c(-c2ccccc2)o1` [Compound 1372], the “activation of hSTING and/or mSTING” value is reported as “activate hSTING and/or mSTING”.
Regarding `O=[N+]([O-])c1ccccc1S(=O)(=O)N(CCc1c[nH]c2ccccc12)Cc1nc(-c2ccccc2)c(-c2ccccc2)[nH]1` [Compound 1373], the “activation of hSTING and/or mSTING” value was “activate hSTING and/or mSTING”.

The next assay deals with T3, human GATA2 (Homo sapiens, UniProt P23769).
T3 construct: expressed in transfected cells; host or cells: IHH
T3 sequence (P23769 1-480): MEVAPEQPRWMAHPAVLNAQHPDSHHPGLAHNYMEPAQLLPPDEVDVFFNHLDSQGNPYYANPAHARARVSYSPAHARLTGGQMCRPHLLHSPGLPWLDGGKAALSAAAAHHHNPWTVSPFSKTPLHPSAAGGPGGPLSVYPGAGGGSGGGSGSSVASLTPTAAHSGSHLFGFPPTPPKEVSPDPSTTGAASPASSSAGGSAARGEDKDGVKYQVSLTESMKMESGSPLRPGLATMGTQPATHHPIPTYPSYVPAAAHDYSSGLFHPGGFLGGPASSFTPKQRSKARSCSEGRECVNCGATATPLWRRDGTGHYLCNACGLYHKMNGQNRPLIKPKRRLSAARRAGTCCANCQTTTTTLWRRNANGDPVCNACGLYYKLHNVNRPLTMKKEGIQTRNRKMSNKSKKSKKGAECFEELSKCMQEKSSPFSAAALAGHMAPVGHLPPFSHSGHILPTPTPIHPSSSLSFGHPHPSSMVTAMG
The assay is described as follows: GATA2-dependent reporter assay in IHH cells. It counts as cell-based. Particulars: GATA-Luc reporter, 48 h. The protocol: K7174 is a known GATA2 inhibitor. The IHH cells were transiently transfected with empty vector (for the NT) or human GATA2-expressing plasmid as well as pRL-TK (internal control) and GATA-Luc reporter plasmids. Cells were exposed to DMSO vehicle or compounds for 48 h. Experiments were in triplicate.
`c1ccc(-c2nc(CCc3c[nH]c4ccccc34)oc2-c2ccccc2)cc1` [Compound 631]: the “GATA2 inhibition in GATA2-dependent reporter assay” value (“GATA2 inhibition” for short) is recorded as “GATA2 inhibitors”.
As to `c1ccc(-c2nc(CCCc3c[nH]c4ccccc34)oc2-c2ccccc2)cc1` [Compound 632], the “GATA2 inhibition” value is listed as “GATA2 inhibitors”.
Take `COc1cccc(/C=C/c2nc(-c3ccccc3)c(-c3ccccc3)o2)c1` [Compound 684]: the “GATA2 inhibition” value is reported as “GATA2 inhibitors”.
With `C(=C\c1cccs1)/c1nc(-c2ccccc2)c(-c2ccccc2)o1` [Compound 685], the “GATA2 inhibition” value was “GATA2 inhibitors”.
In the case of `COc1cccc(-c2nc(Cc3c[nH]c4ccccc34)oc2-c2cccc(O)c2)c1` [Compound 719], the “GATA2 inhibition” value was “GATA2 inhibitors”.
Regarding `c1coc(-c2nc(CCCc3c[nH]c4ccccc34)oc2-c2ccco2)c1` [Compound 831], the “GATA2 inhibition” value is reported as “GATA2 inhibitors”.
In the case of `Fc1cccc(-c2[nH]c(Cc3c[nH]c4ccccc34)nc2-c2ccco2)c1` [Compound 839], the “GATA2 inhibition” value is listed as “GATA2 inhibitors”.
For `COc1ccc(CC/C(=C/C(=O)N2CCC(O)(c3ccccc3)CC2)c2ccccc2)cc1` [Compound 858], the “GATA2 inhibition” value is listed as “GATA2 inhibitors”.
Take `O=C(/C=C(/CCc1ccccc1)c1ccccc1)N1CCC(O)(c2ccccc2)CC1` [Compound 859]: the “GATA2 inhibition” value is reported as “GATA2 inhibitors”.
In the case of `O=C(/C=C(/CCc1cccc(F)c1)c1ccccc1)N1CCC(O)(c2ccccc2)CC1` [Compound 860], the “GATA2 inhibition” value was “GATA2 inhibitors”.
On the same count and under the same terms, the same measure for `O=C1Nc2ccccc2C1CCc1nc(-c2cccc(F)c2)c(-c2cccc(F)c2)o1` (centres unmarked) [Compound 866]: “GATA2 inhibitors”.
As to `O=C(/C=C(/CCc1cccc(C(F)(F)F)c1)c1ccccc1)N1CCC(O)(c2ccccc2)CC1` [Compound 868], the “GATA2 inhibition” value is recorded as “GATA2 inhibitors”.
On to `O=C(/C=C(/CCc1ccccc1)c1cccc(C(F)(F)F)c1)N1CCC(O)(c2ccccc2)CC1` [Compound 869], for which the “GATA2 inhibition” value is “GATA2 inhibitors”.
With `Cc1ccc(/C(=C\C(=O)N2CCC(O)(c3ccccc3)CC2)CCc2ccccc2)cc1` [Compound 870], the “GATA2 inhibition” value is listed as “GATA2 inhibitors”.
Same read-out and setting: the same measure for `COc1ccc(/C(=C\C(=O)N2CCC(O)(c3ccccc3)CC2)CCc2ccccc2)cc1` [Compound 871]: “GATA2 inhibitors”; for `O=C(/C=C(/C=C/c1cccc(C(F)(F)F)c1)c1ccccc1)N1CCC(O)(c2ccccc2)CC1` [Compound 872]: “GATA2 inhibitors”.
For the compound `O=C(C/C(=C\c1ccccc1)c1ccccc1)N1CCC(O)(c2ccccc2)CC1` [Compound 880], the “GATA2 inhibition” value is recorded as “GATA2 inhibitors”.
As for `O=C(/C=C(/Cc1ccccc1)c1ccccc1)N1CCC(O)(c2ccccc2)CC1` [Compound 881], the “GATA2 inhibition” value is listed as “GATA2 inhibitors”.
`Cc1ccc(/C(=C\C(=O)N2CCC(O)(c3ccccc3)CC2)CCc2cccc(F)c2)cc1` [Compound 882]: the “GATA2 inhibition” value is “GATA2 inhibitors”.
On the same count and under the same terms, the value for `COc1ccc(/C(=C\C(=O)N2CCC(O)(c3ccccc3)CC2)CCc2ccccc2)cc1OC` [Compound 883] was “GATA2 inhibitors”.
